# Source: the kinase profiling compilation of Christmann-Franck et al. (2016)
# What was measured:
# Assay in all cases: radiometric filter-binding kinase assay
# STK3 (human) = STK3 (human) (UniProt Q13188)
# EPHB4 (human) = EPHB4 (human) (UniProt P54760)
# MAPK9 (human) = MAPK9 (human) (UniProt P45984)
# MARK3 (human) = MARK3 (human) (UniProt P27448)
# HIPK2 (human) = HIPK2 (human) (UniProt Q9H2X6)
# BRSK1 (human) = BRSK1 (human) (UniProt Q8TDC3)
# HIPK1 (human) = HIPK1 (human) (UniProt Q86Z02)
# MAP3K11 (human) = MAP3K11 (human) (UniProt Q16584)
# EPHB2 (human) = EPHB2 (human) (UniProt P29323)
# EPHA2 (human) = EPHA2 (human) (UniProt P29317)
# EPHB1 (human) = EPHB1 (human) (UniProt P54762)
# SYK (human) = SYK (human) (UniProt P43405)
# DYRK2 (human) = DYRK2 (human) (UniProt Q92630)
# DYRK3 (human) = DYRK3 (human) (UniProt O43781)
# AURKA (human) = AURKA (human) (UniProt O14965)
# MAP2K1 (human) = MAP2K1 (human) (UniProt Q02750)
# FLT1 (human) = FLT1 (human) (UniProt P17948)
# BTK (human) = BTK (human) (UniProt Q06187)
# MAPK11 (human) = MAPK11 (human) (UniProt Q15759)
# TAOK1 (human) = TAOK1 (human) (UniProt Q7L7X3)
# MAPK10 (human) = MAPK10 (human) (UniProt P53779)
# TBK1 (human) = TBK1 (human) (UniProt Q9UHD2)
# [1] = test system: AKT1 (human), P31749 [S473D]
# YES1 (human) = YES1 (human) (UniProt P07947)
# GCK (human) = GCK (human) (UniProt Q12851)
# [2] = test system: RPS6KB1 (human), P23443 [T412E]
# MAPK8 (human) = MAPK8 (human) (UniProt P45983)
# JAK2 JH1 JH2 (human) = JAK2 JH1 JH2 (human) (UniProt O60674)
# MAPKAPK5 (human) = MAPKAPK5 (human) (UniProt Q8IW41)
# MAP3K1 (human) = MAP3K1 (human) (UniProt Q13233)
# BRSK2 (human) = BRSK2 (human) (UniProt Q8IWQ3)
# PIM1 (human) = PIM1 (human) (UniProt P11309)
# PRKCA (human) = PRKCA (human) (UniProt P17252)
# CaMK1 (human) = CaMK1 (human) (UniProt Q14012)
# INSR (human) = INSR (human) (UniProt P06213)
# MAP3K5 (human) = MAP3K5 (human) (UniProt Q99683)
# MAPK8 (human), sequence (P45983 whole entry, looked up): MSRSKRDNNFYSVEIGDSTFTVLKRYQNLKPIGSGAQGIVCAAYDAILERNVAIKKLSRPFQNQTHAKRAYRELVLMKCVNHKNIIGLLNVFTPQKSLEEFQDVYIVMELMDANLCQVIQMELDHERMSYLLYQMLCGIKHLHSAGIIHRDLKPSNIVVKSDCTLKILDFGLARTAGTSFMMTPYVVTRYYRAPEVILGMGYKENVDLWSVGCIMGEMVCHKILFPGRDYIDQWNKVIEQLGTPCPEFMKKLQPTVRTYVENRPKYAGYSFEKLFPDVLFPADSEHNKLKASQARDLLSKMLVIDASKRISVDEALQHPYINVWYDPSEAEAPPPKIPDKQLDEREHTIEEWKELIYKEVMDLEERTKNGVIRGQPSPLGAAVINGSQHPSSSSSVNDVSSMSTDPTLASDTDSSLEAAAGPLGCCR
# RPS6KB1 (human), P23443 [T412E], sequence (P23443 whole entry T412E, looked up): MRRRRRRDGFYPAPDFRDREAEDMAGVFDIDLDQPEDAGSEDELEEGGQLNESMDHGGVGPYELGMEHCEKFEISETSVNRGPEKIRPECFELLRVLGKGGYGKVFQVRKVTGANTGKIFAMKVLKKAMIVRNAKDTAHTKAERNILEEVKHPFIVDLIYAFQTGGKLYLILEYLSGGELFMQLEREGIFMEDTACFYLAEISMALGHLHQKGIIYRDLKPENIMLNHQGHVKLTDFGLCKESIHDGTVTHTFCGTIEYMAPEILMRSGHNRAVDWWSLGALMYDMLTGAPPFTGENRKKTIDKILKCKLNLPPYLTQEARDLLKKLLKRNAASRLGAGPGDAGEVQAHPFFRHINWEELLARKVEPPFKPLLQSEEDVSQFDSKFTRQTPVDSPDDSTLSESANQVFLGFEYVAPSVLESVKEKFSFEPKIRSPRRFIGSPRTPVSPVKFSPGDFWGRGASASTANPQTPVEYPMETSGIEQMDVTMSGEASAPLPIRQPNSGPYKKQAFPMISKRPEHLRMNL
# HIPK2 (human), sequence (Q9H2X6 whole entry, looked up): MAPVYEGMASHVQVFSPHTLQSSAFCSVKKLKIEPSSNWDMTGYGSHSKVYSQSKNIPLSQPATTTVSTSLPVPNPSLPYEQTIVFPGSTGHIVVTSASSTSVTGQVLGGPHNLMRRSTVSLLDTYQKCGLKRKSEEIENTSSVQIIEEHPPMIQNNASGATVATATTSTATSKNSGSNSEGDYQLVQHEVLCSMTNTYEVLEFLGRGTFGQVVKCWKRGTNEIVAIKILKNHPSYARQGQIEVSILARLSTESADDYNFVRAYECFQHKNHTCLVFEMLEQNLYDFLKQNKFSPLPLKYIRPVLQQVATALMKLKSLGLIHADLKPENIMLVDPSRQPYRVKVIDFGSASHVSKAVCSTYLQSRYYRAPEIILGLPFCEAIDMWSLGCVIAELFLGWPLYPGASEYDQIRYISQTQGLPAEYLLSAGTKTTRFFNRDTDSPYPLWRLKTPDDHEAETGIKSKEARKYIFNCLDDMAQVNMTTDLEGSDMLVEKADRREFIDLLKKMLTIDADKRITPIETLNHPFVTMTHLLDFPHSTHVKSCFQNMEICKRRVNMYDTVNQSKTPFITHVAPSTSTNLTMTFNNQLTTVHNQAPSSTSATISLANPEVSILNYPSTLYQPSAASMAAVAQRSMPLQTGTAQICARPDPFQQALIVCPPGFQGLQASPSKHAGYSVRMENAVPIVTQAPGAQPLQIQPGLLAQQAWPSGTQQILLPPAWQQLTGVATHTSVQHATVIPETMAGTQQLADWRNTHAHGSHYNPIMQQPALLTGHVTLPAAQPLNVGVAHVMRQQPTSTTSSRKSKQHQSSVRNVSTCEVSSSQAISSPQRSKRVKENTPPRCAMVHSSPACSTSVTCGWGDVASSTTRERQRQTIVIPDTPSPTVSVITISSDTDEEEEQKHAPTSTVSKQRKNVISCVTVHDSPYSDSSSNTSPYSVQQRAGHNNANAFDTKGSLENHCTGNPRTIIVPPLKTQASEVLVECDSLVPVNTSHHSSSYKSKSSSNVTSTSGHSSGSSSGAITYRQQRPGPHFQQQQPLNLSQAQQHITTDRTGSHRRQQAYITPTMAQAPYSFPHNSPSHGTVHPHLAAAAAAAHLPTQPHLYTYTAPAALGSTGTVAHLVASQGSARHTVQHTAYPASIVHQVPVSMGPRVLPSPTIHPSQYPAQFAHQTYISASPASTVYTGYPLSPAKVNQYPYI
# MAP2K1 (human), sequence (Q02750 whole entry, looked up): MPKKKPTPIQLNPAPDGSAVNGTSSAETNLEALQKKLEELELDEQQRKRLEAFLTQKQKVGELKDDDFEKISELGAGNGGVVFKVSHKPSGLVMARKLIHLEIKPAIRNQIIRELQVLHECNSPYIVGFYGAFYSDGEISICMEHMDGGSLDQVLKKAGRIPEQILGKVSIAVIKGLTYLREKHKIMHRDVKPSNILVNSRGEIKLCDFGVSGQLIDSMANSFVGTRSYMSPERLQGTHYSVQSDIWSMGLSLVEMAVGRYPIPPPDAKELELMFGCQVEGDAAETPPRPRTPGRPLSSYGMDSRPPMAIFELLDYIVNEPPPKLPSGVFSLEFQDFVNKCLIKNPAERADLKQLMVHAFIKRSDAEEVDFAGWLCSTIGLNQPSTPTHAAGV
# EPHA2 (human), sequence (P29317 whole entry, looked up): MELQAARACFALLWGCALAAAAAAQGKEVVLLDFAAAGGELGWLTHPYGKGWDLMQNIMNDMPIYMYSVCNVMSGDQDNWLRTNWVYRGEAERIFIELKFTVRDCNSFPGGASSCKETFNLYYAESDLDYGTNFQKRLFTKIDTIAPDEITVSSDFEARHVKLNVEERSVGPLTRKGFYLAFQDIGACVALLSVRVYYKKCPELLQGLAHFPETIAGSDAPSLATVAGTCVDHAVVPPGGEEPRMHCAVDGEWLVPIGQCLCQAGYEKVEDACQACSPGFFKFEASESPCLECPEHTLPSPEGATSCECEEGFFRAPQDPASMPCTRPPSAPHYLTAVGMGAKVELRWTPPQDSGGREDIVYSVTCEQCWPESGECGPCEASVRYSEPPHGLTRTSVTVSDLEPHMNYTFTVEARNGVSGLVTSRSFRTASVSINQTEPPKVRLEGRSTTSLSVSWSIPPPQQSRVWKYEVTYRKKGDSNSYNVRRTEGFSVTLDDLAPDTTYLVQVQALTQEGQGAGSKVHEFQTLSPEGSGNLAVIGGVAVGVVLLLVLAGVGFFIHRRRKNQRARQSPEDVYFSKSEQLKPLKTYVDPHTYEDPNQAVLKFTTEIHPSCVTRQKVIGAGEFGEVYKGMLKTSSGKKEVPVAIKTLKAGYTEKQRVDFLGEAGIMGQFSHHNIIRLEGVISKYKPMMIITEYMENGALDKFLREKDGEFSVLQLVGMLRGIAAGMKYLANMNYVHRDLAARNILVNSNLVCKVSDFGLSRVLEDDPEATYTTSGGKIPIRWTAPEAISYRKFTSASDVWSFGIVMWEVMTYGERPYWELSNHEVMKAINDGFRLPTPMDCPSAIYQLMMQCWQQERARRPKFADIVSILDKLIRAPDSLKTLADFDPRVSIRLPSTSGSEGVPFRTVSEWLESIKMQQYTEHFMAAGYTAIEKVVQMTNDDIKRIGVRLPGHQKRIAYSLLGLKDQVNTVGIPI
# BRSK2 (human), sequence (Q8IWQ3 whole entry, looked up): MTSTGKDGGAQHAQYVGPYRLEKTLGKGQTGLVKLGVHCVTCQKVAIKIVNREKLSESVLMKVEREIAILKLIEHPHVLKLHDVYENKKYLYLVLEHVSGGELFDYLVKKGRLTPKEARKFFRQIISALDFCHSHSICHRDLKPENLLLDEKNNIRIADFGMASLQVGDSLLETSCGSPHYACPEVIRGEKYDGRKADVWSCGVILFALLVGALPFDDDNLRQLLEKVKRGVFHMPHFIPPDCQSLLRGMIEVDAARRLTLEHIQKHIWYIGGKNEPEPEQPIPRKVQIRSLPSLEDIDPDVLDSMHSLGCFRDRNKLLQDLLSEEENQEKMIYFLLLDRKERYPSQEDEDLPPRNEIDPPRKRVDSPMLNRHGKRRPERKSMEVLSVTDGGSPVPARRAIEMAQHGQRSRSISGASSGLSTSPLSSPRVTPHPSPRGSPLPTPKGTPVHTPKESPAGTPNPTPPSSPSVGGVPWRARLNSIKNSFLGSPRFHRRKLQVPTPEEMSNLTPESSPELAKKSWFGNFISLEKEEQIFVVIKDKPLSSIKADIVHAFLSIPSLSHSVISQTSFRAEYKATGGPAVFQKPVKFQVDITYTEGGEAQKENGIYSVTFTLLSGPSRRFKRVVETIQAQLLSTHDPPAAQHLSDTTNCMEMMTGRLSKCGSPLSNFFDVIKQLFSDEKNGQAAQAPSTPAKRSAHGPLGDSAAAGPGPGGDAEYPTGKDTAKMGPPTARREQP
# BTK (human), sequence (Q06187 whole entry, looked up): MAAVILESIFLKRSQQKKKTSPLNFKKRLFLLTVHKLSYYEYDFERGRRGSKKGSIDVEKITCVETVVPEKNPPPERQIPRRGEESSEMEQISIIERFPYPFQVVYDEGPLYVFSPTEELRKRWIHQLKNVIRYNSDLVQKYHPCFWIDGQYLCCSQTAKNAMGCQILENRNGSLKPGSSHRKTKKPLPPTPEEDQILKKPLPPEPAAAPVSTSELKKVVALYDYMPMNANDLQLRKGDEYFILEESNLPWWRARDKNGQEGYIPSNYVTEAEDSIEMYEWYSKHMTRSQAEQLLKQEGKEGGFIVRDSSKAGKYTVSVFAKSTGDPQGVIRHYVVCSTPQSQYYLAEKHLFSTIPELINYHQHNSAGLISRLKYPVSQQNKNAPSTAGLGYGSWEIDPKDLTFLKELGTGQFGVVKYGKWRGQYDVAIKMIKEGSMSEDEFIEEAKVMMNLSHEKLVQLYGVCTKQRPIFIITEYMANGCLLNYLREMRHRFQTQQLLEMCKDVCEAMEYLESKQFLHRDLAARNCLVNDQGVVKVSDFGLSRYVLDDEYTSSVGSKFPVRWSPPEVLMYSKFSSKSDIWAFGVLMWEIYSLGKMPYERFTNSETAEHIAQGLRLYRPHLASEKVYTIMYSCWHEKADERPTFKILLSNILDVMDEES
smiles,measurement,setting,value
Cc1ccc(Sc2cnc(Nc3cccc(Br)n3)s2)cc1C(=O)N1CCN(C(=O)CN)CC1,residual activity,STK3 (human); compound 0.1 µM,16%
same,residual activity,STK3 (human); compound 1.0 µM,19%
same,residual activity,STK3 (human); compound 10.0 µM,3%
same,residual activity,EPHB4 (human); compound 0.1 µM,15%
same,residual activity,EPHB4 (human); compound 1.0 µM,13%
same,residual activity,EPHB4 (human); compound 10.0 µM,4%
same,residual activity,MAPK9 (human); compound 0.1 µM,98%
same,residual activity,MAPK9 (human); compound 1.0 µM,94%
same,residual activity,MAPK9 (human); compound 10.0 µM,54%
same,residual activity,MARK3 (human); compound 0.1 µM,103%
same,residual activity,MARK3 (human); compound 1.0 µM,89%
same,residual activity,MARK3 (human); compound 10.0 µM,57%
same,residual activity,HIPK2 (human); compound 0.1 µM,14%
same,residual activity,HIPK2 (human); compound 1.0 µM,13%
same,residual activity,HIPK2 (human); compound 10.0 µM,5%
same,residual activity,BRSK1 (human); compound 0.1 µM,82%
same,residual activity,BRSK1 (human); compound 1.0 µM,81%
same,residual activity,BRSK1 (human); compound 10.0 µM,41%
same,residual activity,HIPK1 (human); compound 0.1 µM,45%
same,residual activity,HIPK1 (human); compound 1.0 µM,42%
same,residual activity,HIPK1 (human); compound 10.0 µM,5%
same,residual activity,MAP3K11 (human); compound 0.1 µM,84%
same,residual activity,MAP3K11 (human); compound 1.0 µM,77%
same,residual activity,MAP3K11 (human); compound 10.0 µM,51%
same,residual activity,EPHB2 (human); compound 0.1 µM,11%
same,residual activity,EPHB2 (human); compound 1.0 µM,4%
same,residual activity,EPHB2 (human); compound 10.0 µM,4%
same,residual activity,EPHA2 (human); compound 0.1 µM,46%
same,residual activity,EPHA2 (human); compound 1.0 µM,36%
same,residual activity,EPHA2 (human); compound 10.0 µM,13%
same,residual activity,EPHB1 (human); compound 0.1 µM,53%
same,residual activity,EPHB1 (human); compound 1.0 µM,36%
same,residual activity,SYK (human); compound 0.1 µM,82%
same,residual activity,SYK (human); compound 1.0 µM,64%
same,residual activity,SYK (human); compound 10.0 µM,28%
same,residual activity,DYRK2 (human); compound 0.1 µM,101%
same,residual activity,DYRK2 (human); compound 1.0 µM,87%
same,residual activity,DYRK2 (human); compound 10.0 µM,80%
same,residual activity,DYRK3 (human); compound 0.1 µM,89%
same,residual activity,DYRK3 (human); compound 1.0 µM,78%
same,residual activity,DYRK3 (human); compound 10.0 µM,43%
same,residual activity,AURKA (human); compound 0.1 µM,3%
same,residual activity,AURKA (human); compound 1.0 µM,3%
same,residual activity,AURKA (human); compound 10.0 µM,0%
same,residual activity,MAP2K1 (human); compound 0.1 µM,96%
same,residual activity,MAP2K1 (human); compound 1.0 µM,85%
same,residual activity,MAP2K1 (human); compound 10.0 µM,40%
same,residual activity,FLT1 (human); compound 0.1 µM,56%
same,residual activity,FLT1 (human); compound 1.0 µM,52%
same,residual activity,FLT1 (human); compound 10.0 µM,19%
same,residual activity,BTK (human); compound 0.1 µM,96%
same,residual activity,BTK (human); compound 1.0 µM,53%
same,residual activity,BTK (human); compound 10.0 µM,8%
same,residual activity,MAPK11 (human); compound 0.1 µM,87%
same,residual activity,MAPK11 (human); compound 1.0 µM,76%
same,residual activity,MAPK11 (human); compound 10.0 µM,48%
same,residual activity,TAOK1 (human); compound 0.1 µM,42%
same,residual activity,TAOK1 (human); compound 1.0 µM,33%
same,residual activity,MAPK10 (human); compound 0.1 µM,94%
same,residual activity,MAPK10 (human); compound 1.0 µM,107%
same,residual activity,MAPK10 (human); compound 10.0 µM,54%
same,residual activity,TBK1 (human); compound 0.1 µM,87%
same,residual activity,TBK1 (human); compound 1.0 µM,78%
same,residual activity,TBK1 (human); compound 10.0 µM,93%
same,residual activity,[1]; compound 0.1 µM,105%
same,residual activity,[1]; compound 1.0 µM,86%
same,residual activity,[1]; compound 10.0 µM,53%
same,residual activity,YES1 (human); compound 0.1 µM,11%
same,residual activity,YES1 (human); compound 1.0 µM,11%
same,residual activity,YES1 (human); compound 10.0 µM,6%
same,residual activity,GCK (human); compound 0.1 µM,101%
same,residual activity,GCK (human); compound 1.0 µM,93%
same,residual activity,GCK (human); compound 10.0 µM,33%
same,residual activity,[2]; compound 0.1 µM,95%
same,residual activity,[2]; compound 1.0 µM,92%
same,residual activity,[2]; compound 10.0 µM,11%
same,residual activity,MAPK8 (human); compound 0.1 µM,98%
same,residual activity,MAPK8 (human); compound 1.0 µM,99%
same,residual activity,MAPK8 (human); compound 10.0 µM,53%
same,residual activity,JAK2 JH1 JH2 (human); compound 0.1 µM,84%
same,residual activity,JAK2 JH1 JH2 (human); compound 1.0 µM,80%
same,residual activity,JAK2 JH1 JH2 (human); compound 10.0 µM,30%
same,residual activity,MAPKAPK5 (human); compound 0.1 µM,96%
same,residual activity,MAPKAPK5 (human); compound 1.0 µM,94%
same,residual activity,MAPKAPK5 (human); compound 10.0 µM,96%
same,residual activity,MAP3K1 (human); compound 0.1 µM,46%
same,residual activity,MAP3K1 (human); compound 1.0 µM,35%
same,residual activity,MAP3K1 (human); compound 10.0 µM,5%
same,residual activity,BRSK2 (human); compound 0.1 µM,88%
same,residual activity,BRSK2 (human); compound 1.0 µM,80%
same,residual activity,BRSK2 (human); compound 10.0 µM,40%
same,residual activity,PIM1 (human); compound 0.1 µM,54%
same,residual activity,PIM1 (human); compound 1.0 µM,49%
same,residual activity,PIM1 (human); compound 10.0 µM,11%
same,residual activity,PRKCA (human); compound 0.1 µM,41%
same,residual activity,PRKCA (human); compound 1.0 µM,45%
same,residual activity,PRKCA (human); compound 10.0 µM,11%
same,residual activity,CaMK1 (human); compound 0.1 µM,62%
same,residual activity,CaMK1 (human); compound 1.0 µM,59%
same,residual activity,CaMK1 (human); compound 10.0 µM,11%
same,residual activity,INSR (human); compound 0.1 µM,19%
same,residual activity,INSR (human); compound 1.0 µM,14%
same,residual activity,INSR (human); compound 10.0 µM,1%
same,residual activity,MAP3K5 (human); compound 0.1 µM,106%
same,residual activity,MAP3K5 (human); compound 1.0 µM,101%
